In ChEMBL document CHEMBL1131733, “Dual-acting agents with alpha1-adrenoceptor antagonistic and steroid 5alpha-reductase inhibitory activities. Synthesis and evaluation of arylpiperazine derivatives” (Bioorg Med Chem Lett, 1999):

Legend:
[1] = Antagonistic Alpha-1 adrenergic receptor activity against phenylephrine-induced contraction of rabbit prostate; format: functional, Oryctolagus cuniculus
[2] = molecular target: T1, Steroid 5-alpha-reductase (Rattus norvegicus, UniProt P24008+P31214); assay: Inhibition of Steroid 5-alpha-reductase from Dawley rat prostate; format: tissue-based, Prostate gland
T1 sequence (P24008 whole entry): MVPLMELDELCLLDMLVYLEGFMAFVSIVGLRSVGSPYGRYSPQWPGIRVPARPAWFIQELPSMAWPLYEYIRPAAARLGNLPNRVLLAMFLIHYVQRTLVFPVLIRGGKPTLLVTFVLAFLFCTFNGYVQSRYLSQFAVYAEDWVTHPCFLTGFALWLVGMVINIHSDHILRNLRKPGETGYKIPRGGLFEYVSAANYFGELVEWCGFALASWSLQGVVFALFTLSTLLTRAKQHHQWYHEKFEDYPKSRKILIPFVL
T1 sequence (P31214 whole entry): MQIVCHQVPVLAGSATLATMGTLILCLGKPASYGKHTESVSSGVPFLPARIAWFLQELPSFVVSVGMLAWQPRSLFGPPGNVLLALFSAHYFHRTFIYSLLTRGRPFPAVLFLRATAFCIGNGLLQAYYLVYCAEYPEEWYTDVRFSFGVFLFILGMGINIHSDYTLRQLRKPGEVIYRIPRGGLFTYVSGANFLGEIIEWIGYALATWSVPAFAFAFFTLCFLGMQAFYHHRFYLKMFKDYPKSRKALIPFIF

[3] = test system: Oryctolagus cuniculus; assay: Dose required to inhibit increase in urethral pressure induced by phenylephrine in anesthetized rabbits by iv administration; format: functional
[4] = molecular target: Steroid 5-alpha-reductase (Rattus norvegicus) (UniProt P24008+P31214); assay: Inhibitory effect on prostatic Steroid 5-alpha-reductase, 2 hours after oral administration

SMILES	pA2 [1]	IC50 [2]	Dose [3]	ED50 [4]
COc1ccccc1N1CCN(CCCNc2cc(=O)n(C)c(=O)n2C)CC1	7.1			
Cc1ccc(COc2ccc(C(=O)c3cn(CCCC(=O)O)c4ccccc34)cc2OCCCN2CCN(c3ccccc3OC(C)C)CC2)cc1	6.8	2.9 nM		
CC(C)Cc1ccc(C(Nc2cccc(C(=O)c3cn(CCCC(=O)O)c4ccccc34)c2)c2ccc(CC(C)C)cc2)cc1		4.2 nM		
CCOc1ccccc1N1CCN(CCCOc2cc(C(=O)c3cn(CCCC(=O)O)c4ccccc34)ccc2OCc2ccc(C)cc2)CC1	7.5	1.5 nM	0.3 mg/kg	7.9 mg/kg
COc1ccccc1N1CCN(CCCOc2ccc(C(=O)c3cn(CCCC(=O)O)c4ccccc34)cc2OCc2ccccc2)CC1	7	360 nM		
COc1ccccc1N1CCN(CCCCOc2cc(C(=O)c3cn(CCCC(=O)O)c4ccccc34)ccc2OCc2ccc(C)cc2)CC1	6.7	1.5 nM		
COc1ccccc1N1CCN(CCCOc2cc(C(=O)c3cn(CCCC(=O)O)c4ccccc34)ccc2OCc2ccc(C)cc2)CC1	7.7	3.5 nM		
COc1ccccc1N1CCN(CCCOc2cc(C(=O)c3cn(CCCC(=O)O)c4ccccc34)ccc2OCc2ccccc2)CC1	7.8	11 nM		
CCCOc1ccccc1N1CCN(CCCOc2cc(C(=O)c3cn(CCCC(=O)O)c4ccccc34)ccc2OCc2ccc(C)cc2)CC1	6.8	3 nM		
COc1ccccc1N1CCN(CCC(Oc2ccc(C(=O)Nc3ccccc3OCCCC(=O)O)cc2)c2ccc(C)cc2)CC1 (centres undefined)	7.8			
COc1ccccc1N1CCN(CCC(Oc2ccc(C(=O)Nc3ccccc3OCCCC(=O)O)cc2)c2ccccc2)CC1 (centres undefined)	7.6	920 nM		
COc1ccccc1N1CCN(CCOc2cc(C(=O)c3cn(CCCC(=O)O)c4ccccc34)ccc2OCc2ccc(C)cc2)CC1	6.8	4.8 nM		
COc1ccccc1N1CCN(CCCOc2ccc(C(=O)Nc3ccccc3OCCCC(=O)O)cc2OCc2ccccc2)CC1	7.2	3500 nM		
CCc1ccc(COc2ccc(C(=O)c3cn(CCCC(=O)O)c4ccccc34)cc2OCCCN2CCN(c3ccccc3OC)CC2)cc1	6.6	4 nM		
COc1ccccc1N1CCN(CCCOc2cc(C(=O)Nc3ccccc3OCCCC(=O)O)ccc2OCc2ccccc2)CC1	8	490 nM		
